“And” between values parts separate entries of the source, which are not always exact repeats. Identical values can stand only once.
Experiments:
[1] = In vitro stability experiment in fetal bovine serum and normal saline; format: in vitro ADME
Method: The in vitro stability of the radioligand is of great importance for its further in vivo studies. Generally, the in vitro stability study is carried out in normal saline and animal serum. A specific method was as follows: respectively incubating 10 μCi of HPLC-purified radioligand [^18F] II-15 and 100 μL of fetal bovine serum at 37° C. for 1 h and 2 h, adding 200 μL of acetonitrile thereto after finishing the incubation to fully precipitate proteins, then centrifuging at […] for 5 min (7000 rpm), collecting supernatant, filtering the supernatant with filter membrane, and then performing HPLC analysis on 100 μL of the filtered supernatant; incubating 10 μCi of HPLC-purified radioligand [^18F] II-15 with 100 μL of normal saline at room temperature for 1 h and 2 h, respectively, and then directly analyzing by HPLC.

[2] = In vivo distribution experiment in animals; settings: for brain/blood ratio / Absorption Amount, blood / Absorption Amount, bone / Absorption Amount, brain / Absorption Amount, heart / Absorption Amount, kidney / Absorption Amount, liver / Absorption Amount, lung / Absorption Amount, muscle / Absorption Amount, spleen: female Kunming mice; for Absorption Amount, blood / Absorption Amount, bone / Absorption Amount, brain / Absorption Amount, heart / Absorption Amount, kidney / Absorption Amount, liver / Absorption Amount, lung / Absorption Amount, muscle / Absorption Amount, spleen: tail vein

With `O=C1c2cc(N3CCN4CCC3CC4)ccc2-c2cccc([18F])c21` [[^18F] II-15] the “radiochemical purity after incubation” value ([1]; fetal calf serum, 37° C., 1 h) was “greater than 98%”, the “radiochemical purity after incubation” value ([1]; fetal calf serum, 37° C., 2 h) was “greater than 98%” and the “radiochemical purity after incubation” value ([1]; normal saline, room temperature, 1 h) was “greater than 98%”. For the same compound, the “radiochemical purity after incubation” value ([1]; normal saline, room temperature, 2 h) was “greater than 98%”, the “in vivo defluorination phenomenon (bone absorption)” value ([2]; 5-90 min, mice) was “relatively weaker” and the brain/blood ratio ([2]; 5 min) was 6.23. The brain/blood ratio ([2]; 15 min) was 9.57 and 9.35, the brain/blood ratio ([2]; 30 min) was 9.57 and the brain/blood ratio ([2]; 60 min) was 8.03. The brain/blood ratio ([2]; 90 min) was 6.98, the “Absorption Amount, blood” value ([2]; 5 min) was 1.43 ± 0.06 % ID/g wet weight and the “Absorption Amount, blood” value ([2]; 15 min) was 1.24 ± 0.16 % ID/g wet weight. For the same compound, the “Absorption Amount, blood” value ([2]; 30 min) was 1.03 ± 0.07 % ID/g wet weight, the “Absorption Amount, blood” value ([2]; 60 min) was 0.68 ± 0.01 % ID/g wet weight and the “Absorption Amount, blood” value ([2]; 90 min) was 0.52 ± 0.06 % ID/g wet weight. The “Absorption Amount, bone” value ([2]; 5 min) was 3.02 ± 0.11 % ID/g wet weight, the “Absorption Amount, bone” value ([2]; 15 min) was 4.55 ± 0.68 % ID/g wet weight and the “Absorption Amount, bone” value ([2]; 30 min) was 4.84 ± 0.18 % ID/g wet weight. For the same compound, the “Absorption Amount, bone” value ([2]; 60 min) was 7.27 ± 1.31 % ID/g wet weight, the “Absorption Amount, bone” value ([2]; 90 min) was 7.65 ± 0.52 % ID/g wet weight and the “Absorption Amount, brain” value ([2]; 5 min) was 8.98±0.41 % ID/g wet weight. The “Absorption Amount, brain” value ([2]; 15 min) was 11.60±0.14 % ID/g wet weight, the “Absorption Amount, brain” value ([2]; 30 min) was 9.86 ± 0.05 % ID/g wet weight and the “Absorption Amount, brain” value ([2]; 60 min) was 5.46±0.27 % ID/g wet weight. The “Absorption Amount, brain” value ([2]; 90 min) was 3.63±0.25 % ID/g wet weight, the “Absorption Amount, heart” value ([2]; 5 min) was 8.37 ± 0.14 % ID/g wet weight and the “Absorption Amount, heart” value ([2]; 15 min) was 4.45 ± 0.62 % ID/g wet weight. For the same compound, the “Absorption Amount, heart” value ([2]; 30 min) was 3.56 ± 0.31 % ID/g wet weight, the “Absorption Amount, heart” value ([2]; 60 min) was 2.19 ± 0.16 % ID/g wet weight and the “Absorption Amount, heart” value ([2]; 90 min) was 1.71 ± 0.13 % ID/g wet weight. The “Absorption Amount, kidney” value ([2]; 5 min) was 15.92 ± 0.24 % ID/g wet weight, the “Absorption Amount, kidney” value ([2]; 15 min) was 11.54 ± 0.79 % ID/g wet weight and the “Absorption Amount, kidney” value ([2]; 30 min) was 8.06 ± 0.69 % ID/g wet weight. The “Absorption Amount, kidney” value ([2]; 60 min) was 4.85 ± 0.443 % ID/g wet weight, the “Absorption Amount, kidney” value ([2]; 90 min) was 4.26 ± 0.19 % ID/g wet weight and the “Absorption Amount, liver” value ([2]; 5 min) was 8.19 ± 1.19 % ID/g wet weight. For the same compound, the “Absorption Amount, liver” value ([2]; 15 min) was 12.28 ± 1.96 % ID/g wet weight, the “Absorption Amount, liver” value ([2]; 30 min) was 13.74 ± 1.36 % ID/g wet weight and the “Absorption Amount, liver” value ([2]; 60 min) was 9.74 ± 0.07 % ID/g wet weight. The “Absorption Amount, liver” value ([2]; 90 min) was 7.46 ± 0.19 % ID/g wet weight, the “Absorption Amount, lung” value ([2]; 5 min) was 70.52 ± 7.86 % ID/g wet weight and the “Absorption Amount, lung” value ([2]; 15 min) was 20.23 ± 1.51 % ID/g wet weight. For the same compound, the “Absorption Amount, lung” value ([2]; 30 min) was 18.30 ± 1.56 % ID/g wet weight, the “Absorption Amount, lung” value ([2]; 60 min) was 7.64 ± 0.99 % ID/g wet weight and the “Absorption Amount, lung” value ([2]; 90 min) was 4.99 ± 0.45 % ID/g wet weight. For the same compound, the “Absorption Amount, muscle” value ([2]; 5 min) was 5.51 ± 0.65 % ID/g wet weight, the “Absorption Amount, muscle” value ([2]; 15 min) was 3.48 ± 0.40 % ID/g wet weight and the “Absorption Amount, muscle” value ([2]; 30 min) was 2.36 ± 0.30 % ID/g wet weight. For the same compound, the “Absorption Amount, muscle” value ([2]; 60 min) was 1.79 ± 0.06 % ID/g wet weight, the “Absorption Amount, muscle” value ([2]; 90 min) was 1.32 ± 0.11 % ID/g wet weight and the “Absorption Amount, spleen” value ([2]; 5 min) was 7.72 ± 0.65 % ID/g wet weight. For the same compound, the “Absorption Amount, spleen” value ([2]; 15 min) was 11.58 ± 0.92 % ID/g wet weight, the “Absorption Amount, spleen” value ([2]; 30 min) was 8.67 ± 0.48 % ID/g wet weight and the “Absorption Amount, spleen” value ([2]; 60 min) was 4.08 ± 0.38 % ID/g wet weight. The “Absorption Amount, spleen” value ([2]; 90 min) was 2.97 ± 0.25 % ID/g wet weight.

Reference: US20200147243A1, “LIGAND COMPOUND OF ALPHA7 NICOTINIC ACETYLCHOLINE RECEPTOR AND APPLICATION THEREOF” (BEIJING NORMAL UNIVERSITY, priority 2017, published 2020)
